According to PubChem BioAssay AID1845208 (Molecular Pharmacology Branch, DTP, NCI, 2023):

Tested on: NCI-H196 SCLC complex tumor spheroid viability
Test: Anticancer human tumor NCI-H196 cell line growth inhibition;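 further: spheroids exposed to compounds for 7 days before readout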;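 on viability, T/C: 100% = DMSO vehicle control wells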
Settings: for IC50: curve of first compound; for viability, T/C: stronger effect = lower value
Source text: Multicellular complex tumor spheroid response to DNA repair inhibitors in combination with DNA-damaging drugs
This study explores the anticancer activities of DNA-damaging drugs and inhibitors of DNA damage repair, both as single agents and in combinations. Complex tumor spheroids comprised of malignant cells, endothelial cells and mesenchymal stem cells served as an in vitro model for human solid tumors. This model system incorporates physiologically relevant features and patient-derived or established malignant cell lines with clinically relevant genetic alterations from many tumor types. Twenty-six patient-derived or established malignant cell lines were evaluated representing sarcoma, melanoma, small cell lung cancer (SCLC), non-small cell lung cancer (NSCLC), as well as bladder, ovarian and pancreatic cancers. The concentration ranges selected for each drug and investigational agent were based upon clinically achievable concentrations if the clinical Cmax of the agent was known.
Compounds. The drugs and compounds olaparib (NSC753686), talazoparib (NSC767125), berzosertib (NSC777718), elimusertib (NSC800525), nedisertib (NSC802822), VX-984 (NSC792969), AZD-1390 (NSC803789), temozolomide (NSC362856), topotecan (NSC609699), trabectedin (NSC813783), staurosporine (NSC755774), and gemcitabine (NSC613327) were obtained from the National Cancer Institute (NCI) Developmental Therapeutics Program Chemical Repository. The FDA-approved anticancer drug set is available from the Developmental Therapeutics Program at https://dtp.cancer.gov/organization/dscb/obtaining/available_plates.htm. […] The stock solutions were prepared in dimethyl sulfoxide (DMSO, Sigma-Aldrich, St. Louis, MO, cat. D2650) at 400-fold the tested concentration and stored at -70 degrees C. Prior to their use, the stock solutions were diluted in fresh medium and the final DMSO concentration in the assay was 0.25% (v/v). All drugs and investigational agents were tested over a range starting from a high concentration at or near the clinical Cmax and decreasing in half-log increments. If the clinical Cmax for an agent had not been determined, the highest concentration tested was 10 microM.
Cell Lines. The patient-derived cancer cell (PDC) lines: 156681-154-R-J1-PDC, 283228-195-R-J1-PDC, 287954-098-R-J1-PDC, 292921-168-R-J2-PDC, 349418-098-R-PDC, 425362-245-T-J1-PDC, 556581-035-R-J1-PDC, and BL0293-F563-PDC were received from the NCI Patient-Derived Models Repository (PDMR, https://pdmr.cancer.gov). The established cell lines HS-SY-2 (RRID:CVCL_8719), MPNST, and SYO-1 (RRID:CVCL_7146) were obtained from the Sloan Kettering Institute. The alveolar soft parts sarcoma cell line ASPS-1 (RRID:CVCL_S738) was established at the NCI and grown from internal seed stocks. The following established cell lines were purchased from the American Type Culture Collection (ATCC, Manassas, VA): G-401 (ATCC, cat. CRL-1441, RRID:CVCL_0270), SW982 (ATCC, cat. HTB-93, RRID:CVCL_1734), VA-ES-BJ (ATCC, cat. CRL-2138, RRID:CVCL_1785), NCI-H719 (ATCC, cat. CRL-5837, RRID:CVCL_1582), NCI-H196 (ATCC, cat. CRL-5823, RRID:CVCL_1509), NCI-H841 (ATCC, cat. CRL-5845, RRID:CVCL_1595), NCI-H1618 (ATCC, cat. CRL-5879, RRID:CVCL_1480), NCI-H1876 (ATCC, cat. CRL-5902, RRID:CVCL_1503), DMS 114 (ATCC, cat. CRL-2066; RRID:CVCL_1174), NCI-H211 (ATCC, cat. CRL-5824; RRID:CVCL_1529), and SW 1271 (ATCC, cat. CRL-2177, RRID:CVCL_1716). The small cell lung cancer cell line COR-L88 was purchased from Sigma-Aldrich (cat. 92031917-1VL, RRID:CVCL_1141). The non-small cell lung cancer cell lines NCI-H226 (RRID:CVCL_1544) and NCI-H322M (RRID:CVCL_1557) were established at the NCI and grown from internal seed stocks. Pooled donor human umbilical vein endothelial cells (HUVEC, Lonza, cat. CC-2519) and human mesenchymal stem cells (hMSC, Lonza, cat. PT-2501) were purchased from Lonza (Walkersville, MD).
Cell Culture. All cells were maintained in an incubator at 37 degrees C and 5% CO2 with 95% humidity. […]

[1] = second compound 0.003 µM, first compound 0.0316 µM
[2] = second compound 0.003 µM, first compound 0.1 µM
[3] = second compound 0.003 µM, first compound 0.316 µM
[4] = second compound 0.003 µM, first compound 1 µM
[5] = second compound 0.003 µM, first compound 3.16 µM
[6] = second compound 0.003 µM, first compound 10 µM
[7] = second compound 0.00949 µM, first compound 0.0316 µM
[8] = second compound 0.00949 µM, first compound 0.1 µM
[9] = second compound 0.00949 µM, first compound 0.316 µM
[10] = second compound 0.00949 µM, first compound 1 µM
[11] = second compound 0.00949 µM, first compound 3.16 µM
[12] = second compound 0.00949 µM, first compound 10 µM
[13] = second compound 0.03 µM, first compound 0.0316 µM
[14] = second compound 0.03 µM, first compound 0.1 µM
[15] = second compound 0.03 µM, first compound 0.316 µM
[16] = second compound 0.03 µM, first compound 1 µM
[17] = second compound 0.03 µM, first compound 3.16 µM
[18] = second compound 0.03 µM, first compound 10 µM
[19] = second compound 0.0949 µM, first compound 0.0316 µM
[20] = second compound 0.0949 µM, first compound 0.1 µM
[21] = second compound 0.0949 µM, first compound 0.316 µM
[22] = second compound 0.0949 µM, first compound 1 µM
[23] = second compound 0.0949 µM, first compound 3.16 µM
[24] = second compound 0.0949 µM, first compound 10 µM
[25] = second compound 0.3 µM, first compound 0.0316 µM
[26] = second compound 0.3 µM, first compound 0.1 µM
[27] = second compound 0.3 µM, first compound 0.316 µM
[28] = second compound 0.3 µM, first compound 1 µM
[29] = second compound 0.3 µM, first compound 3.16 µM
[30] = second compound 0.3 µM, first compound 10 µM

| Compound | IC50 (second compound 0.003 µM) [µM] | IC50 (second compound 0.00949 µM) [µM] | IC50 (second compound 0.03 µM) [µM] | IC50 (second compound 0.0949 µM) [µM] | IC50 (second compound 0.3 µM) [µM] | viability, T/C [1] [%] | viability, T/C [2] [%] | viability, T/C [3] [%] | viability, T/C [4] [%] | viability, T/C [5] [%] | viability, T/C [6] [%] | viability, T/C [7] [%] | viability, T/C [8] [%] | viability, T/C [9] [%] | viability, T/C [10] [%] | viability, T/C [11] [%] | viability, T/C [12] [%] | viability, T/C [13] [%] | viability, T/C [14] [%] | viability, T/C [15] [%] | other results |
| --- | --- | --- | --- | --- | --- | --- | --- | --- | --- | --- | --- | --- | --- | --- | --- | --- | --- | --- | --- | --- | --- |
| CC1COCCN1c1cc(-c2ccnn2C)c2ccnc(-c3ccn[nH]3)c2n1 (stereo not given) + CC[C@@]1(O)C(=O)OCc2c1cc1n(c2=O)Cc2cc3c(CN(C)C)c(O)ccc3nc2-1 | 4.08 | 2.26 | 4.78 | 4.15 | 0.334 | 83 | 75.1 | 68.1 | 57 | 50.6 | 47.3 | 75.4 | 69.9 | 67 | 51.4 | 52 | 45 | 70.8 | 64.9 | 60.9 | viability, T/C [16]: 57.6%; viability, T/C [17]: 50.2%; viability, T/C [18]: 47.6%; viability, T/C [19]: 62.8%; viability, T/C [20]: 61.5%; viability, T/C [21]: 61.7%; viability, T/C [22]: 57.1%; viability, T/C [23]: 50.7%; viability, T/C [24]: 44.3%; viability, T/C [25]: 55.9%; viability, T/C [26]: 51.7%; viability, T/C [27]: 48.4%; viability, T/C [28]: 49.1%; viability, T/C [29]: 43.4%; viability, T/C [30]: 38.5% |
| COc1cc(C)[nH]c(=O)c1CN1CCc2c(Cl)cc(C(OC)C3COC3)c(Cl)c2C1=O (stereo not given) + CC[C@@]1(O)C(=O)OCc2c1cc1n(c2=O)Cc2cc3c(CN(C)C)c(O)ccc3nc2-1 | > 10 | > 10 | > 10 | > 10 | > 10 | 108 | 105 | 99.9 | 101 | 103 | 97.8 | 102 | 98.6 | 91.5 | 93.3 | 99.6 | 106 | 99.3 | 93.5 | 97.5 | viability, T/C [16]: 89.2%; viability, T/C [17]: 95.7%; viability, T/C [18]: 99.3%; viability, T/C [19]: 106%; viability, T/C [20]: 109%; viability, T/C [21]: 99.8%; viability, T/C [22]: 102%; viability, T/C [23]: 94.2%; viability, T/C [24]: 106%; viability, T/C [25]: 104%; viability, T/C [26]: 101%; viability, T/C [27]: 99.8%; viability, T/C [28]: 102%; viability, T/C [29]: 95.8%; viability, T/C [30]: 88.7% |
| Cc1cc(C)c(CNC(=O)c2cc(-c3ccc(CN4CCOCC4)cc3)cc3c2cnn3C2CCCC2)c(=O)[nH]1 + CC[C@@]1(O)C(=O)OCc2c1cc1n(c2=O)Cc2cc3c(CN(C)C)c(O)ccc3nc2-1 | > 10 | > 10 | > 10 | > 10 | > 10 | 99.4 | 94.9 | 102 | 95.6 | 101 | 104 | 96.5 | 105 | 99.9 | 88.7 | 94.7 | 96.5 | 91.8 | 96.1 | 98.4 | viability, T/C [16]: 93%; viability, T/C [17]: 97.5%; viability, T/C [18]: 112%; viability, T/C [19]: 102%; viability, T/C [20]: 101%; viability, T/C [21]: 108%; viability, T/C [22]: 98.5%; viability, T/C [23]: 97%; viability, T/C [24]: 98.6%; viability, T/C [25]: 95.6%; viability, T/C [26]: 87.7%; viability, T/C [27]: 86.1%; viability, T/C [28]: 87.9%; viability, T/C [29]: 79.9%; viability, T/C [30]: 86.9% |
| [2H]c1nc(C)nc([2H])c1-c1cc(NC[C@@H](C)c2cccc3c(C(=O)NC)ccnc23)ncn1 + CC[C@@]1(O)C(=O)OCc2c1cc1n(c2=O)Cc2cc3c(CN(C)C)c(O)ccc3nc2-1 | > 10 | > 10 | > 10 | > 10 | > 10 | 103 | 104 | 92.5 | 97.2 | 106 | 100 | 100 | 96.5 | 91.8 | 95.5 | 99.7 | 100 | 96.8 | 102 | 95.4 | viability, T/C [16]: 93.4%; viability, T/C [17]: 95.5%; viability, T/C [18]: 94.6%; viability, T/C [19]: 99.4%; viability, T/C [20]: 102%; viability, T/C [21]: 107%; viability, T/C [22]: 102%; viability, T/C [23]: 100%; viability, T/C [24]: 102%; viability, T/C [25]: 109%; viability, T/C [26]: 103%; viability, T/C [27]: 94.8%; viability, T/C [28]: 105%; viability, T/C [29]: 104%; viability, T/C [30]: 100% |
